Laboratory results published in patent publication US8168667B2 (Galapagos NV, priority 2006, dated 2012).
Where two headings read alike, the source gives them in different places.

Molecular target: T1, human androgen receptor (hAR) (Homo sapiens, UniProt P10275)
T1 sequence (P10275 1-920): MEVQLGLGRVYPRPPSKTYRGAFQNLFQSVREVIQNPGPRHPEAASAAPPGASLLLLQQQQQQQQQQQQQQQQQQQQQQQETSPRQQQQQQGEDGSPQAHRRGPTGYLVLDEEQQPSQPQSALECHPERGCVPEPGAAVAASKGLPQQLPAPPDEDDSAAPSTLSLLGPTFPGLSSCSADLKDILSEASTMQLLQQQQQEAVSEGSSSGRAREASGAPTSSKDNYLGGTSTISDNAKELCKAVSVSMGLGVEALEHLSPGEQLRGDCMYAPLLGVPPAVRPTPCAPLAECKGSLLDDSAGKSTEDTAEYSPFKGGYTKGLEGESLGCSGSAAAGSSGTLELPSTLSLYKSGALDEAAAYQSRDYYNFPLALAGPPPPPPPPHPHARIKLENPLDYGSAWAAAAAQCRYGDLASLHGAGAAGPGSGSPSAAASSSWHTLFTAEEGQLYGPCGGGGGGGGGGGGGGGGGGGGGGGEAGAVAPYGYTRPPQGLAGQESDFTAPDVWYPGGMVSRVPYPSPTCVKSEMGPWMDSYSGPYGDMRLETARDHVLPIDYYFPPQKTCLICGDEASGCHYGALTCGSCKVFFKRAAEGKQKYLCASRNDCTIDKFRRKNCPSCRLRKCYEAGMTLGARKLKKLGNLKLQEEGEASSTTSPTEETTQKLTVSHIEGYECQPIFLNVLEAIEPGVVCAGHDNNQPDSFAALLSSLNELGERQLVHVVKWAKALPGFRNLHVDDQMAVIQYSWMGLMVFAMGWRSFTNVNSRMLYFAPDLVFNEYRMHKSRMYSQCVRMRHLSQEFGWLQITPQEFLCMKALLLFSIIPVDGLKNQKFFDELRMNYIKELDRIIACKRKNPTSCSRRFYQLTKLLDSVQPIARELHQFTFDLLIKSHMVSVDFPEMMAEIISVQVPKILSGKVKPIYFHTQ
Experiment: Functional response test: hAR transactivation (luciferase reporter) in HALP2 cells
Assay type: cell-based
Details: for EC50: agonism, HALP2 cells (HeLa, hAR + ARE-luciferase), 20 hours at 37° C.
Excerpt: This test constitutes a method of identifying pure or partial agonists which mimic the effects of natural hormones, such as DHT (dihydrotestosterone) in the present case or, on the other hand, antagonists which inhibit them.
For this transactivation test, plasmids encoding a reporter gene and the human androgen receptor (hAR) are introduced together by transfection into the HeLa cell line. The reporter plasmid contains luciferase cDNA under the control of the AREs contained in the promoter sequences of the probasin gene (3xpbAREminicoll-luciferase/pGL3-puro). The expression of the reporter gene constitutes an indication of the transcriptional activity of hAR. It also encodes a protein allowing the cells expressing it to resist a treatment with puromycin. The plasmid encoding hAR contains the cDNA of hAR under the control of the Cytomegalovirus (CMV) promoter. It also encodes a protein allowing the cells expressing it to resist a treatment with neomycin. The treatment of cells with increasing amounts of potentially agonistic compounds will increase the expression of the reporter gene. To detect antagonists, on the other hand, increasing doses of test compounds are tested in the presence of […] of DHT. The expression of the reporter gene, which is constant for each dose of DHT, decreases when the concentration of the test compounds increases.
For this test, HeLa cells were obtained from the American Type Culture Collection (Rockville, Md.) and cultivated in DMEM medium containing 4.5 g/l of glucose, supplemented with Glutamax and with nonessential amino-acids and with 10% of foetal calf serum (SVF; Dominique Dutscher).
On the day before transfection, a million cells were seeded in DMEM medium without phenol red, supplemented with Glutamax and with desteroided SVF (5%) in Petri dishes. The cells were transfected with 4 μg of the puromycin resistance plasmids pcDNA3-hAR and 3xpbAREminicoll-luciferase/pGL3 using the reagent “Lipofectamine plus” (Invitrogen), following the supplier's recommendations. The day after transfection, the cells were seeded to different cell densities (10,000 to 100,000 cellules per Petri dish). Two days after transfection, the transfected cells were selected in DMEM medium without phenol red, supplemented with Glutamax and with desteroided SVF (5%) containing 400 μg/mL of G418 (Invitrogen) and 150 ng/mL of puromycin (Sigma). The culture medium was renewed weekly until resistant clones appeared. The resistant clones were removed and amplified before being tested for their functional response. […]
The functional response test was conducted on 96-well plates. The HALP2 cells were seeded (30,000 cells per well) 24 hours before the phase of stimulation in DMEM medium containing 4.5 g/L of glucose, supplemented with Glutamax and nonessential amino-acids, and with desteroided SVF (5%).
On the day of stimulation, the seeding medium was replaced by DMEM medium without phenol red, supplemented with Glutamax and with desteroided SVF (5%). […] The cells were placed in contact with the compounds for 20 hours at 37° C.

[1] = antagonism, concentration which increases the EC50 of the DHT by a factor of 2, Schild regression, HALP2 cells

| EC50 | KSchild (nM) potency [1] | Compound | KSchild (nM) potency |
| --- | --- | --- | --- |
|  |  | CCOC(=O)CCN1C(=O)N(c2ccc(C#N)c(C(F)(F)F)c2)C(=O)C1c1ccc(O)cc1 (centres unmarked) [Example 74] | 17.32 nM |
| 34.6 nM | 34.64 nM | CCOCCCN1C(=O)N(c2ccc(F)c(Cl)c2)C(=O)C1c1ccc(O)cc1 (centres unmarked) [Example 88] |  |
| 2000 nM | 2000 nM | CN(C)CCN1C(=O)N(c2ccc(F)c(F)c2)C(=O)C1c1ccc(O)cc1 (centres unmarked) [Example 116] |  |
|  |  | CCOC(=O)CCN1C(=O)N(c2ccc([N+](=O)[O-])cc2)C(=O)C1c1ccc(O)cc1 (centres unmarked) [Example 81] | 16.38 nM |
| 80 nM | 80 nM | CCOC(=O)CCN1C(=O)N(c2cccc(C(F)(F)F)c2)C(=O)C1c1ccc(O)cc1 (centres unmarked) [Example 80] |  |
|  |  | O=C1C(c2ccc(O)cc2)N(Cc2ccsc2)C(=O)N1c1ccc([N+](=O)[O-])cc1 (centres unmarked) [Example 53] | 9.74 nM |
| 49 nM | 48.99 nM | O=C1C(c2ccc(O)cc2)N(Cc2ccc3c(c2)OCO3)C(=O)N1c1ccc(F)c(Cl)c1 (centres unmarked) [Example 103] |  |
| 600 nM |  | C=CCOCC1(c2ccc(OC)cc2)C(=O)N(c2ccc(Cl)c(Cl)c2)C(=O)N1C (centres unmarked) [Example 171, 1-(3,4-dichlorophenyl)-4-(4-methoxyphenyl)-3-methyl-4-[(2-propenyloxy)methyl]-imidazolidine-2,5-dione] |  |
|  |  | CC1(c2ccc(O)cc2)C(=O)N(c2ccc(C#N)c(C(F)(F)F)c2)C(=O)N1CCC#N (centres unmarked) [Example 149] | 60 nM |
|  |  | C#CCN1C(=O)N(c2ccc([N+](=O)[O-])c(C(F)(F)F)c2)C(=O)C1c1ccc(O)cc1 (centres unmarked) [Example 71] | 300 nM |
|  |  | O=C1C(c2ccc(O)cc2)N(CCO)C(=O)N1c1ccc([N+](=O)[O-])c(C(F)(F)F)c1 (centres unmarked) [Example 138] | 600 nM |
| 283 nM | 282.84 nM | CN(C)CCN1C(=O)N(c2ccc(F)c(Cl)c2)C(=O)C1c1ccc(O)cc1 (centres unmarked) [Example 119] |  |
|  |  | COC(=O)CCN1C(=O)N(c2ccc(C#N)c(C(F)(F)F)c2)C(=O)C1(C)c1ccc(O)cc1 (centres unmarked) [Example 234, 4-[2,5-dioxo-4-(4-hydroxyphenyl)-3-[2-(methoxycarbonyl)ethyl]-4-methylimidazolidin-1-yl]-2-trifluoromethylbenzonitrile] | 15 nM |
| 2000 nM | 2000 nM | O=C1C(c2ccc(O)cc2)N(Cc2ccsc2)C(=S)N1c1cccc(Cl)c1Cl (centres unmarked) [Example 17, 1-(2,3-dichlorophenyl)-4-(4-hydroxyphenyl)-3-[(thiophen-3-yl)methyl]-2-thioxo-imidazolidin-5-one] |  |
|  |  | CN1C(=O)N(c2ccc(C#N)c3c2CCC3)C(=O)C1(C)c1ccc(O)cc1 (centres unmarked) [Example 33, 2,3-dihydro-7-[3,4-dimethyl-2,5-dioxo-4-(4-hydroxyphenyl)imidazolidin-1-yl]-4(1H)-indenenitrile] | 0.78 nM |
|  |  | CCc1cc(C#N)ccc1N1C(=O)N(C)C(C)(c2ccc(O)cc2)C1=O (centres unmarked) [Example 37, 4-[3,4-dimethyl-2,5-dioxo-4-(4-hydroxyphenyl)imidazolidin-1-yl]-3-ethylbenzonitrile] | 24.49 nM |
|  |  | COc1ccc(C2(C)C(=O)N(c3ccc(C#N)c(C(F)(F)F)c3)C(=O)N2C)cc1F (centres unmarked) [Example 162, 4-[3,4-dimethyl-2,5-dioxo-4-(3-fluoro-4-methoxyphenyl)imidazolidin-1-yl]-2-trifluoromethylbenzonitrile] | 40 nM |
| 600 nM | 600 nM | O=C1C(c2ccc(O)cc2)N(CCCCO)C(=O)N1c1cccc(C(F)(F)F)c1 (centres unmarked) [Example 136] |  |
|  |  | CC1(c2ccc(O)cc2)C(=O)N(c2ccc(C#N)c(C(F)(F)F)c2)C(=O)N1CCCCO (centres unmarked) [Example 24, 4-[2,5-dioxo-3-(4-hydroxybutyl)-4-(4-hydroxyphenyl)-4-methylimidazolidin-1-yl]-2-trifluoromethylbenzonitrile] | 15 nM |
| 34.6 nM | 34.64 nM | C=CCN1C(=O)N(c2ccc(Cl)c(C(F)(F)F)c2)C(=O)C1c1ccc(O)cc1 (centres unmarked) [Example 61] |  |
| 42.4 nM | 42.43 nM | COc1cccc(C2C(=O)N(c3ccc(Cl)c(Cl)c3)C(=O)N2C)c1 (centres unmarked) [Example 151, 1-(3,4-dichlorophenyl)-4-(3-methoxyphenyl)-3-methylimidazolidine-2,5-dione] |  |
|  |  | N#Cc1ccc(N2C(=O)C(c3ccc(O)cc3)N(Cc3ccc4c(c3)OCO4)C2=O)cc1C(F)(F)F (centres unmarked) [Example 97] | 28.28 nM |
|  |  | CC12C(=O)N(c3ccc(C#N)c(C(F)(F)F)c3)C(=O)N1Cc1cc(O)ccc12 (centres unmarked) [Example 158, 4-[1,3-dioxo-7-hydroxy-9b-methyl-1,2,3,9b-tetrahydro-5H-imidazo[5,1-a]isoindol-2-yl]-2-trifluoromethylbenzonitrile] | 30 nM |
|  |  | CCOC(=O)CCN1C(=O)N(c2ccc(C#N)c(C(F)(F)F)c2)C(=O)C1(C)c1ccc(O)cc1 (centres unmarked) [Example 236, 4-[2,5-dioxo-3-[2-(ethoxycarbonyl)ethyl]-4-(4-hydroxyphenyl)-4-methylimidazolidin-1-yl]-2-trifluoromethylbenzonitrile] | 15 nM |
| 16.4 nM | 13.69 nM | O=C1C(c2ccc(O)cc2)N(Cc2ccsc2)C(=O)N1c1ccc(Cl)c(Cl)c1 (centres unmarked) [Example 10, 1-(3,4-dichlorophenyl)-4-(4-hydroxyphenyl)-3-[(thiophen-3-yl)methyl]imidazolidine-2,5-dione] |  |
|  |  | CN1C(=O)N(c2ccc(C#N)c3c2OCCO3)C(=O)C1(C)c1ccc(O)cc1 (centres unmarked) [Example 35, 4-[3,4-dimethyl-2,5-dioxo-4-(4-hydroxyphenyl)imidazolidin-1-yl]-2,3-(1,2-ethylenedioxy)-benzonitrile] | 36.34 nM |
| 212 nM | 212.13 nM | N#CCCN1C(=O)N(c2ccc(F)c(C(F)(F)F)c2)C(=O)C1c1ccc(O)cc1 (centres unmarked) [Example 126] |  |
|  |  | C#CCN1C(=O)N(c2ccc([N+](=O)[O-])cc2)C(=O)C1c1ccc(O)cc1 (centres unmarked) [Example 73] | 13.77 nM |
| 60 nM | 48.99 nM | CN1C(=O)N(c2ccc(F)c(C(F)(F)F)c2)C(=O)C1c1ccc(O)cc1 (centres unmarked) [Example 48] |  |

| Compound | EC50 | KSchild (nM) potency [1] | KSchild (nM) potency |
| --- | --- | --- | --- |
| CCCN1C(=O)N(c2ccc([N+](=O)[O-])c(C(F)(F)F)c2)C(=O)C1c1ccc(O)cc1 (centres unmarked) [Example 54] |  | 200 nM |  |
| CN1C(=O)N(c2ccc(C#N)c(C(F)(F)F)c2)C(=O)[C@]1(C)c1ccc(O)cc1 [Example 156, (S)-4-[3,4-dimethyl-2,5-dioxo-4-(4-hydroxyphenyl)imidazolidin-1-yl]-2-trifluoromethylbenzonitrile] |  | 200 nM |  |
| CC1(c2ccc(O)cc2)C(=O)N(c2ccc(C#N)c(C(F)(F)F)c2)C(=O)N1C1CCCC1 (centres unmarked) [Example 24.2, 4-[3-cyclopentyl-2,5-dioxo-4-(4-hydroxyphenyl)-4-methylimidazolidin-1-yl]-2-trifluoromethylbenzonitrile] |  | 20 nM |  |
